# Measured values: patent publication US6515103B1 (priority 1996, dated 2003)
# Where “and” joins values, the source holds several entries; their conditions need not be identical. Equal values may be shown once. Read-outs that look alike come from different tables or passages of the source. Marks after values point to notes of the source that are not given here. Where a SMILES comes first, the peptide text is derived from it. [ ]: non-standard residue; d: D form. Gla = N[C@@H](CC(C(=O)O)C(=O)O)C(=O)O
# Experiments:
# [1] = biological target: NR1-1b/NR2B NMDA receptor subtype
# [2] = test system: Frings audiogenic seizure-susceptible mice; conditions: mouse, in vivo
# [3] = test system: Frings audiogenic seizure-susceptible mice; conditions: mouse, in vivo; remark: listed apart in the source
# NMDA receptor [4] = assay: spermine-stimulated [3H]MK-801 binding assay, inhibition
# [5] = test system: young (<2 weeks old) mice; conditions: mouse, in vivo
# [6] = test system: young (<2 weeks old) mice; conditions: mouse, in vivo; remark: listed apart in the source
# [7] = test system: young (<2 weeks old) mice; conditions: mouse, in vivo; remark: listed apart in the source
# CF No. 1 mice = conditions: mouse, in vivo; for anticonvulsant activity in CF No. 1 mice: sc
# NR1-1b/NR2D combination = biological target: T1, NR1-1b/NR2D combination (Homo sapiens, UniProt O15399+Q05586); assay type: cell-based
# T1 construct: expressed in transfected cells; host or cells: oocytes
# NR1 A subtype = biological target: T2, NR1 A subtype (Homo sapiens, UniProt Q05586); assay type: cell-based
# T2 construct: expressed in transfected cells; host or cells: oocytes
# [8] = biological target: kainate receptors (GluR6) (Homo sapiens, UniProt Q13002); assay type: cell-based
# NR1.1 B subtype = biological target: T3, NR1.1 B subtype (Homo sapiens, UniProt Q05586); assay type: cell-based
# T3 construct: expressed in transfected cells; host or cells: oocytes
# CF #1 Mice = conditions: mouse, in vivo
# AMPA receptor GluR1 = AMPA receptor GluR1 (Homo sapiens, UniProt P42261); assay type: cell-based
# NR1-1b/NR2B NMDA subtype [9] = biological target: T4, NR1-1b/NR2B NMDA subtype (Homo sapiens, UniProt Q05586+Q13224); assay: cell-based
# T4 construct: expressed in transfected cells; host or cells: oocytes
# NR1-1b/NR2B NMDA subtype [10] = assay: cell-based
# NMDA receptor [11] = biological target: NMDA receptor
# T4 sequence (Q13224 27-1484, other chains not shown): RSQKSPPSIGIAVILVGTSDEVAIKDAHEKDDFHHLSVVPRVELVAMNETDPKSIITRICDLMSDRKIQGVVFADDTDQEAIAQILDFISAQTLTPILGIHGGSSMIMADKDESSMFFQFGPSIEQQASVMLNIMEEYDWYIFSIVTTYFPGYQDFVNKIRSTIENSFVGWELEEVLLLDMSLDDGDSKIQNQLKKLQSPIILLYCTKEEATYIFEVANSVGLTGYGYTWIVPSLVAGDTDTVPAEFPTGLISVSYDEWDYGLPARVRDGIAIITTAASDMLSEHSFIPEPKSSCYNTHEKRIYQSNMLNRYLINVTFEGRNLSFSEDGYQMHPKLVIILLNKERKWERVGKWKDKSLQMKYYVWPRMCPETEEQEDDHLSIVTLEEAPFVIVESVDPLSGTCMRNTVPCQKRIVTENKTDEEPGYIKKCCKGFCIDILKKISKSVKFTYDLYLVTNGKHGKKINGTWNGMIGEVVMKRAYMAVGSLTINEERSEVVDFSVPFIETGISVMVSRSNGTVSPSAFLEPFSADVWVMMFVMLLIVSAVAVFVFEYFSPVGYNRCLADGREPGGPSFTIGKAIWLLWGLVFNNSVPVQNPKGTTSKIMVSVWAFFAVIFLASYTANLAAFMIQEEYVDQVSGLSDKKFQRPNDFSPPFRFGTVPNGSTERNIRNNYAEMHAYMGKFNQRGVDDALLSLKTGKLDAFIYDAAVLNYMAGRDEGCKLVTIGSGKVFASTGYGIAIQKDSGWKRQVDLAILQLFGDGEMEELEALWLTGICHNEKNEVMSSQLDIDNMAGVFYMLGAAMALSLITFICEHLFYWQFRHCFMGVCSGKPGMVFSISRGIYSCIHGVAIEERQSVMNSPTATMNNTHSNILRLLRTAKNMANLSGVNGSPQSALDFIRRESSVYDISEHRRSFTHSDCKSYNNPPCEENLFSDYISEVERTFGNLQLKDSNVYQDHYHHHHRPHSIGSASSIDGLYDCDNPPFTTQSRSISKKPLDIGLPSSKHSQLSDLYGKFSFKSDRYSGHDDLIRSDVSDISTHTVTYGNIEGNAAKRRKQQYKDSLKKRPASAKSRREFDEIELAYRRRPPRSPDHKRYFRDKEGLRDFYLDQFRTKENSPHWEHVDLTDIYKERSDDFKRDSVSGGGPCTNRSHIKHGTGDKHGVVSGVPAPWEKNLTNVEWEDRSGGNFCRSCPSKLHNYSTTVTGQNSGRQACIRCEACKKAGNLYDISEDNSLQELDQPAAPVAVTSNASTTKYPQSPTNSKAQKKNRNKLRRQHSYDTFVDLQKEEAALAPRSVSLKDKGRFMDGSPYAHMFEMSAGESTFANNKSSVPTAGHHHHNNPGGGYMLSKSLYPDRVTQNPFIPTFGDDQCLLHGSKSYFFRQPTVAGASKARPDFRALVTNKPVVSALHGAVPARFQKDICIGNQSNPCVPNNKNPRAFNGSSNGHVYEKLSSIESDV
# Chain of kainate receptors (GluR6) (Q13002 32-908, species assumed): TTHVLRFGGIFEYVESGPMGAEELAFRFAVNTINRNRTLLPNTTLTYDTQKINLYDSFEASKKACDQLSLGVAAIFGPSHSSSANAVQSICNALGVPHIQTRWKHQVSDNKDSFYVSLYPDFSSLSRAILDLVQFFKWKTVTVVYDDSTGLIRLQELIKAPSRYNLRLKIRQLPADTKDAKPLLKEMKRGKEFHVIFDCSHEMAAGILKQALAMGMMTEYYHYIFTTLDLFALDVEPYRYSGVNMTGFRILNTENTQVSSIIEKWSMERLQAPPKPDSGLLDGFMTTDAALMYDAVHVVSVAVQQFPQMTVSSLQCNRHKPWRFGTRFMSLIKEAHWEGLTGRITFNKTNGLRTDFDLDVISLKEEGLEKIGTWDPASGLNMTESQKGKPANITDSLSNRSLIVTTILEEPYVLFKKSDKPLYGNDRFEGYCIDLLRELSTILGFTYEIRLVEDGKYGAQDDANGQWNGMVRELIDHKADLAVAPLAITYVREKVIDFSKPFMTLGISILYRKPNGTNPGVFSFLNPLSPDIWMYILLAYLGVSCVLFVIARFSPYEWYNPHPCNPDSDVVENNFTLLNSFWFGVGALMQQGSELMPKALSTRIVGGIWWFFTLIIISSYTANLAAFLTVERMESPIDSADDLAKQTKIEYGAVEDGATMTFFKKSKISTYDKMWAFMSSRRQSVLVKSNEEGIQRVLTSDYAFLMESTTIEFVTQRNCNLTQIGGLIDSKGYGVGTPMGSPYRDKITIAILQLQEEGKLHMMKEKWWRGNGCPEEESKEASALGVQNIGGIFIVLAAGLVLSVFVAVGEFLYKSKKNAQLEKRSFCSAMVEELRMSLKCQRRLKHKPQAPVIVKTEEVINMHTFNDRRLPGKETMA
# Chain of AMPA receptor GluR1 (P42261 19-906): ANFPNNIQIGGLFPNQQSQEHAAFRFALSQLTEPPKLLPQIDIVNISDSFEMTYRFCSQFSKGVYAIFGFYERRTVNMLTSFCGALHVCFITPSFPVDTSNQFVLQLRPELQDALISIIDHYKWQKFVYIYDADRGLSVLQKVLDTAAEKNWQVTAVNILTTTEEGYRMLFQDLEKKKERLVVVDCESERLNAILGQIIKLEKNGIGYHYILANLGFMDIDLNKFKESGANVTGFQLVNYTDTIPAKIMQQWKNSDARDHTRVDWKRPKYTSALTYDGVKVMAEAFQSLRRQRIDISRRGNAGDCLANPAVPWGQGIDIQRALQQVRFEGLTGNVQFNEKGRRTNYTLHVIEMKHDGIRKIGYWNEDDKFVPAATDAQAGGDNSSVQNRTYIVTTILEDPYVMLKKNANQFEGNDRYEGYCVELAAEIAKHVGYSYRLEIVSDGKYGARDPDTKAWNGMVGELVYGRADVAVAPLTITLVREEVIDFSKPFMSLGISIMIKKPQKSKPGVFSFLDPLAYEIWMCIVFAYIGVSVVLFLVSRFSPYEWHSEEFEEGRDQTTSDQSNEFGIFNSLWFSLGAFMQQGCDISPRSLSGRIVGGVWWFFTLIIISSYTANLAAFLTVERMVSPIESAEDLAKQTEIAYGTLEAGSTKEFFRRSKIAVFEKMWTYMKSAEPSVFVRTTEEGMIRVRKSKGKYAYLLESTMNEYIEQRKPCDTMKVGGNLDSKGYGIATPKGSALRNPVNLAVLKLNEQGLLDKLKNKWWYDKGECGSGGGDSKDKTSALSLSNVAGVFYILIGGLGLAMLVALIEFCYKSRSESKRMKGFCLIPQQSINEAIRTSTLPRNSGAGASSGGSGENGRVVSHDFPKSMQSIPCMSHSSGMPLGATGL
# T1 sequence (O15399 28-1336, other chains not shown): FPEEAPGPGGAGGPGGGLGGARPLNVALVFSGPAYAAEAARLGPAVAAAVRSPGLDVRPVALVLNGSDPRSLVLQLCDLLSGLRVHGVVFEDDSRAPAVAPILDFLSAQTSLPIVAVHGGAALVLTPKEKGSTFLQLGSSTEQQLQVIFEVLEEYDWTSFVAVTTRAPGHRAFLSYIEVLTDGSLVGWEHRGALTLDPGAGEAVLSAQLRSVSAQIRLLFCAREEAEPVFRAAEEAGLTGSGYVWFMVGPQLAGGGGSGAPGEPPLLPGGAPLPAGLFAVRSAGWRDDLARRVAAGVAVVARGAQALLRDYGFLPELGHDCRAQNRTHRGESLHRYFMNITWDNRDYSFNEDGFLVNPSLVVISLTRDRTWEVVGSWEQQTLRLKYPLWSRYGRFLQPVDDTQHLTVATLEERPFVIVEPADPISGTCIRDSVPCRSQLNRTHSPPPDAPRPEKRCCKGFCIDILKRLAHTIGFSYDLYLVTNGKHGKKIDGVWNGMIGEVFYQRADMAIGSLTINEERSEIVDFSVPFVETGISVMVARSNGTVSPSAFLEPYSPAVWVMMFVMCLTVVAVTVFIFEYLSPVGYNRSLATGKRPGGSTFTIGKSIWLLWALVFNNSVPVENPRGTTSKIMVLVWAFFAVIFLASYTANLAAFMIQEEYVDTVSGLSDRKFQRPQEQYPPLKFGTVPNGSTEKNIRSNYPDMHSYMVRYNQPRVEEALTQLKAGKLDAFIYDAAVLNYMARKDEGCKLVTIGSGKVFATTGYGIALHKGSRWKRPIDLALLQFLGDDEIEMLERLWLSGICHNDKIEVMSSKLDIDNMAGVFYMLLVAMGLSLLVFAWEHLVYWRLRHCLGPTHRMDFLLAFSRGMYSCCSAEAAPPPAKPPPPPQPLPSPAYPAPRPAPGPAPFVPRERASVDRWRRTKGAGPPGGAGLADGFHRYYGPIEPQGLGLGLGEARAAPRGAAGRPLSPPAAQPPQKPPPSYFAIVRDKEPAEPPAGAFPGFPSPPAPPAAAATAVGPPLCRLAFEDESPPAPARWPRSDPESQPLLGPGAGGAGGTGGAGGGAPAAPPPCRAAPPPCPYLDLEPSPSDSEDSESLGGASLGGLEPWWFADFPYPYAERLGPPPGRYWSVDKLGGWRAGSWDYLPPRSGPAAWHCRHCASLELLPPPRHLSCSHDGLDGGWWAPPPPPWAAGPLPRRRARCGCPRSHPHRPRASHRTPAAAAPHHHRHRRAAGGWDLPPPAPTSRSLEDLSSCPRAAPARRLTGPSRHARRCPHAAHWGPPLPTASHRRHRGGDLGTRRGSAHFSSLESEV
compound,measurement,setting,value
Conantokin R (peptide),Ki,[1],140 nM
"CSCC[C@H](NC(=O)[C@H](CCCCN)NC(=O)[C@H](CCC(N)=O)NC(=O)[C@H](Cc1ccc(O)cc1)NC(=O)[C@H](CC(C(=O)O)C(=O)O)NC(=O)[C@H](CC(C(=O)O)C(=O)O)NC(=O)[C@H](CCC(=O)O)NC(=O)CN)C(=O)N[C@@H](CC(C)C)C(=O)N[C@@H](CC(C(=O)O)C(=O)O)C(=O)N[C@@H](CC(N)=O)C(=O)N[C@@H](CC(C)C)C(=O)N[C@@H](CCCNC(=N)N)C(=O)N[C@@H](CC(C(=O)O)C(=O)O)C(=O)N[C@@H](C)C(=O)N[C@@H](CCC(=O)O)C(=O)N[C@H](C(=O)N[C@@H](CCCCN)C(=O)N[C@@H](CCCCN)C(=O)N[C@@H](CC(N)=O)C(=O)N[C@@H](C)C(N)=O)C(C)C [Con T, Conantokin T] (H-GE[Gla][Gla]YQKML[Gla]NLR[Gla]AEVKKNA-NH2)",P.I.,[2],13
same,TD50,[3],0.228 nmols
same,"behavioral toxicity, rotorod test","[3]; iv, 12 mg/kg",No animals exhibited behavioral toxicity
A^7 Con G (peptide),IC50,NMDA receptor [4],45 nM
Conantokin Oc [Con Oc],"Sleepy Test, positive/tested",[5],2/3 and 0/3
same,"Righting Reflex, positive/tested",[6],0/3
same,"Catalepsy Test, positive/tested",[7],0/3
Conantokin Gm [Con Gm],anticonvulsant activity in CF No. 1 mice,CF No. 1 mice,anticonvulsant activity
Conantokin Qu [Con Qu],anticonvulsant activity in CF No. 1 mice,CF No. 1 mice,anticonvulsant activity
"CC[C@H](C)[C@H](NC(=O)[C@H](CC(N)=O)NC(=O)[C@H](CC(C(=O)O)C(=O)O)NC(=O)[C@H](CCCNC(=N)N)NC(=O)[C@H](C)NC(=O)[C@H](CC(C)C)NC(=O)[C@H](CC(C(=O)O)C(=O)O)NC(=O)[C@H](C)NC(=O)[C@H](C)NC(=O)[C@H](CCSC)NC(=O)[C@H](CCCCN)NC(=O)[C@H](C)NC(=O)[C@@H](NC(=O)[C@H](CC(C(=O)O)C(=O)O)NC(=O)[C@H](CC(C(=O)O)C(=O)O)NC(=O)[C@H](CCC(=O)O)NC(=O)CN)C(C)C)C(=O)N[C@@H](C)C(=O)N[C@@H](CCCCN)C(=O)NCC(=O)N[C@H]1CSSC[C@@H](C(=O)N[C@@H](Cc2ccc(O)cc2)C(=O)N2CCC[C@H]2C(=O)O)NC(=O)[C@H](CC(N)=O)NC(=O)[C@H](C(C)C)NC(=O)[C@H](CCCCN)NC1=O [Con R, Conantokin R]","Sleepy Test, positive/tested",[5],2/3
same,effect on NR1-1b/NR2D combination,NR1-1b/NR2D combination,not affected
same,"inhibition of homomeric NR1 complex, A subtype",NR1 A subtype,no effect
same,"Righting Reflex, positive/tested",[6],2/3
same,MES ED50,CF No. 1 mice,0.083 nmols
same,P.I.,CF No. 1 mice,3.6
same,anticonvulsant activity in CF No. 1 mice,CF No. 1 mice,anticonvulsant activity
same,inhibition of kainate receptors (GluR6),[8],not to inhibit
same,"inhibition of homomeric NR1 complex, NR1.1 B subtype",NR1.1 B subtype,only inhibited the NR1.1 B subtype
same,TD50,CF #1 Mice,˜0.300 nmols
same,# Protected/# Tested,[2],4/4
same,ED50,[2],0.013^c nmols and 0.013 nmols
same,"ED50 (pmol, i.c.v.)",[2],9 pmol and 9.00 pmol
same,P.I.,[2],17
same,"Protective Index, PI (TD50/ED50)",[2],18
same,antiseizure activity relative to valproic acid,[2],"greater than 400,000 fold"
same,protective index relative to valproic acid,[2],at least eight times better
same,TD50,[3],164 pmol
same,inhibition of AMPA receptor GluR1,AMPA receptor GluR1,not to inhibit
same,inhibition of heteromeric NR1:NR2B complexes with B splice variant of NR1,NR1-1b/NR2B NMDA subtype [9],inhibited
same,inhibition at 3 µM,NR1-1b/NR2B NMDA subtype [9]; read-out: inhibition of the current produced by the NR1-1b/NR2B NMDA subtype in response to glutamate and glycine,~95%
same,affinity for NR1-1b/NR2B relative to NR1-1b/NR2D,NR1-1b/NR2B NMDA subtype [10],greater than 50 fold
same,selectivity for the B splice variant of NR1 in heteromeric complexes,NR1-1b/NR2B NMDA subtype [10],selective for the B splice variant
same,"Catalepsy Test, positive/tested",[7],2/3
Conatokin L [Con L],"Sleepy Test, positive/tested",[5],4/4
same,"Righting Reflex, positive/tested",[6],2/4 and 3/4
same,anticonvulsant activity in CF No. 1 mice,CF No. 1 mice,anticonvulsant activity
same,"Catalepsy Test, positive/tested",[7],4/4 and 3/4
Conantokin S1 [Con S1],anticonvulsant activity in CF No. 1 mice,CF No. 1 mice,anticonvulsant activity
Conantokin G (peptide),IC50,NMDA receptor [4],195 nM
same,IC50,NMDA receptor [11],195 nM
